Consider 53 molecules from ChEMBL document CHEMBL5257100, “Discovery and development of benzene sulfonamide derivatives as anti-hepatic fibrosis agents” (Bioorg Med Chem Lett, 2023).

The source made the active and inactive calls. No cut-off for these calls is given here.

Data set [1] is described as follows: Anti-hepatic fibrosis activity in human LX2 cells assessed as inhibition of COL1A1 promoter activity at 25 micromol/L by luciferase reporter assay relative to control. The note with it: LX-2, dose 25 µmol/L. The data set is classed as functional.
Data set [2] has as its system LX-2. In words: Anti-hepatic fibrosis activity in human LX2 cells assessed as inhibition of TGFbeta1-induced COL1A1 protein expression at 3 uM incubated for 24 hrs by western blot analysis. In kind it is functional, cell-based. Background: A western blot detects proteins with antibodies after separation by electrophoresis.
Data set [3] has as its system LX-2. In words: Anti-hepatic fibrosis activity in human LX2 cells assessed as inhibition of TGFbeta1-induced FN protein expression at 3 uM incubated for 24 hrs by western blot analysis. The data set is classed as functional, cell-based.
In data set [4] the test system is LX-2. Put plainly: Anti-hepatic fibrosis activity in human LX2 cells assessed as inhibition of TGFbeta1-induced alpha-SMA protein expression at 3 uM incubated for 24 hrs by western blot analysis. In kind it is functional, cell-based.
For data set [5], the system named is LX-2. Put plainly: Anti-hepatic fibrosis activity in human LX2 cells assessed as inhibition of TGFbeta1-induced TIMP-1 protein expression at 3 uM incubated for 24 hrs by western blot analysis. In kind it is functional, cell-based.
In data set [6] the test system is LX-2. In words: Anti-hepatic fibrosis activity in human LX2 cells assessed as inhibition of TGF-beta1 induced COL1A1 mRNA expression at 3 micromol/L incubated for 24 hrs by qPCR analysis. The data set is classed as functional, cell-based. The settings on record: dose 3.0 µmol/L. For orientation: Quantitative PCR measures a nucleic acid by following its amplification.

A short description of data set [7]: Cytotoxicity against human LX2 cells assessed as mortality rate at 1 to 30 uM incubated for 24 hrs by Sulfonyl Rhodamine B assay. In kind it is toxicity, cell-based. The settings on record: lx-2, 24 h, dose 1-30 µM.
The next data set concerns AML12. In words: Cytotoxicity against mouse AML12 cells assessed as mortality rate at 1 to 30 uM incubated for 24 hrs by Sulfonyl Rhodamine B assay. The data set is classed as toxicity, cell-based. The settings on record: aml12, 24 h, dose 1-30 µM.
A short description of data set [8]: Inhibition of JAK1/STAT1/STAT3 signaling pathway in human LX2 cells assessed as decrease in TGF-beta induced JAK1 phosphorylation level at 1 uM incubated for 24 hrs by Western blot analysis. The data set is classed as cell-based.
Data set [9] is described as follows: Inhibition of JAK1/STAT1/STAT3 signaling pathway in human LX2 cells assessed as decrease in TGF-beta induced STAT1 phosphorylation level at 1 uM incubated for 24 hrs by Western blot analysis. The data set is classed as cell-based.
Data set [10] in a line: Inhibition of JAK1/STAT1/STAT3 signaling pathway in human LX2 cells assessed as decrease in TGF-beta induced STAT3 phosphorylation level at 1 uM incubated for 24 hrs by Western blot analysis. The data set is classed as cell-based.

The term inhibition denotes the percentage by which the read-out fell short of the control. Take `O=[N+]([O-])c1cccc(S(=O)(=O)Nc2ccccc2CNc2cc(Cl)ccc2Cl)c1`: the inhibition at 25 µM in data set [1] turned out to be 40%.
Turning to `O=C(Nc1ccc(Cl)cc1Cl)Nc1ccccc1NS(=O)(=O)c1ccc([N+](=O)[O-])cc1`, in data set [1], the inhibition at 25 µM is 25.8%.
The same measure, in the same setting: next, `O=[N+]([O-])c1ccc(S(=O)(=O)Nc2ccccc2CNc2ccc(F)c(Cl)c2)cc1`: 34.2%; `O=C(Nc1cccc(C(F)(F)F)c1)Nc1ccccc1NS(=O)(=O)c1ccc([N+](=O)[O-])cc1`: 22.9%; `COc1cccc(NCc2ccccc2NS(=O)(=O)c2cccc([N+](=O)[O-])c2)c1`: 23.2%.
Still for that read-out and setting: the result for `O=C(Nc1ccccc1NS(=O)(=O)c1cccc([N+](=O)[O-])c1)c1ccc(Cl)cc1Cl` reads 27.9%; that for `O=C(Nc1ccccc1NS(=O)(=O)c1cccc([N+](=O)[O-])c1)c1ccc(F)c(Cl)c1`, 37.1%.
On to `Cc1cccc(S(=O)(=O)Nc2ccccc2CNc2cc(Cl)c(Cl)c(Cl)c2)c1`, for which the inhibition at 25 µM in data set [1] was determined as 2.2%.
Still for that read-out and setting: the result for `O=C(Nc1cc(C(F)(F)F)ccc1Cl)Nc1ccccc1NS(=O)(=O)c1cccc([N+](=O)[O-])c1` reads 21.3%.
Same read-out and setting: next, `C=C1C(=O)O[C@@H]2/C=C(\C)CC/C=C(\C)CC[C@@H]12` [COSTUNOLIDE]: 45.4%; `COc1cccc(S(=O)(=O)Nc2ccccc2CNc2cc(Cl)c(Cl)c(Cl)c2)c1`: 11.9%.
With `O=[N+]([O-])c1ccc(S(=O)(=O)Nc2ccccc2CNc2cc(F)ccc2Cl)cc1`, the inhibition at 25 µM in data set [1] was determined as 26%. The inhibition entry with LX-2 [2], in the data set with LX-2 [3], in the data set with LX-2 [4] and in the data set on LX-2 [5] was “Active” each time.
For `O=S(=O)(Nc1ccccc1CNc1cc(Cl)c(Cl)c(Cl)c1)c1ccc(C(F)(F)F)cc1`, the inhibition at 25 µM in [1] was 42.4%.
The same measure, in the same setting: next, `O=[N+]([O-])c1cccc(S(=O)(=O)Nc2ccccc2CNc2cc(F)ccc2Cl)c1`: 29.8%; `O=C(Nc1ccc(C(F)(F)F)cc1)Nc1ccccc1NS(=O)(=O)c1cccc([N+](=O)[O-])c1`: 17.8%; `Cc1cccc(S(=O)(=O)Nc2ccccc2NC(=O)c2cc(Cl)c(Cl)c(Cl)c2)c1`: 15.3%.
Same read-out and setting: next, `O=C(Nc1ccc(Cl)cc1Cl)Nc1ccccc1NS(=O)(=O)c1cccc(OC(F)(F)F)c1`: 26.2%.
Regarding `Cc1cccc(S(=O)(=O)Nc2ccccc2NC(=O)Nc2cc(Cl)c(Cl)c(Cl)c2)c1`, the inhibition at 25 µM in data set [1] was determined as 24.9%.
As to `COc1ccc(S(=O)(=O)Nc2ccccc2CNc2cc(Cl)c(Cl)c(Cl)c2)cc1`, the inhibition at 25 µM in data set [1] was 1.2%.
In the case of `O=C(Nc1cc(Cl)c(Cl)c(Cl)c1)c1ccccc1NS(=O)(=O)c1cccc([N+](=O)[O-])c1`, in [1], the inhibition at 25 µM was determined as 35.9%. Besides, the inhibition entry (in the data set on LX-2 [6]; in data set [8]; in data set [9]; in [10]) was “Active” throughout. The Activity result (in [7]; in the data set on AML12) was “Non-Toxic” throughout.
As to `COc1cccc(S(=O)(=O)Nc2ccccc2NC(=O)Nc2cc(Cl)c(Cl)c(Cl)c2)c1`, the inhibition at 25 µM in data set [1] was found to be 16.9%.
In the case of `COc1ccc(C(F)(F)F)cc1NC(=O)Nc1ccccc1NS(=O)(=O)c1cccc([N+](=O)[O-])c1`, the inhibition at 25 µM in data set [1] amounted to 20.2%.
With `O=C(Nc1ccc(Cl)c(Cl)c1)Nc1ccccc1NS(=O)(=O)c1ccc([N+](=O)[O-])cc1`, in data set [1], the inhibition at 25 µM came to 28.5%. Also, the inhibition entry with LX-2 [6] is “Active”.
Take `O=C(Nc1ccccc1NS(=O)(=O)c1ccc([N+](=O)[O-])cc1)c1ccc(Cl)cc1Cl`: the inhibition at 25 µM in [1] came to 33%.
Turning to `O=[N+]([O-])c1ccc(S(=O)(=O)Nc2ccccc2CNc2cc(Cl)ccc2Cl)cc1`, the inhibition at 25 µM in [1] is 32.3%. Besides, the inhibition entry with LX-2 [6], in the data set with LX-2 [2], in the data set with LX-2 [3], with LX-2 [4] and in the data set with LX-2 [5] was “Active” each time.
Consider `O=C(Nc1ccc(Cl)cc1)Nc1ccccc1NS(=O)(=O)c1cccc([N+](=O)[O-])c1`, for which, in [1], the inhibition at 25 µM is 21.9%.
The same measure, in the same setting: next, `O=S(=O)(Nc1ccccc1CNc1cc(Cl)c(Cl)c(Cl)c1)c1ccc(Cl)cc1`: 31.7%; `O=C(Nc1ccccc1NS(=O)(=O)c1ccc([N+](=O)[O-])cc1)c1cc(Cl)ccc1Cl`: 26.5%.
As for `O=[N+]([O-])c1cccc(S(=O)(=O)Nc2ccccc2CNc2cc(Cl)c(Cl)c(Cl)c2)c1`, the inhibition at 25 µM in data set [1] came to 42.3%. In addition, the inhibition entry with LX-2 [6] was “Active”.
Take `O=C(Nc1ccc(Cl)cc1)Nc1ccccc1NS(=O)(=O)c1ccc([N+](=O)[O-])cc1`: the inhibition at 25 µM in data set [1] came out at 23.6%.
On the same count and under the same terms, the result for `O=S(=O)(Nc1ccccc1CNc1cc(Cl)c(Cl)c(Cl)c1)c1cccc(C(F)(F)F)c1` reads 37.3%; that for `CC[C@H]1[C@@H](O)[C@@H]2[C@H](CC[C@]3(C)[C@@H]([C@H](C)CCC(=O)O)CC[C@@H]23)[C@@]2(C)CC[C@@H](O)C[C@@H]12` [OBETICHOLIC ACID], 7.9%.
On to `O=C(Nc1ccc(C(F)(F)F)cc1)Nc1ccccc1NS(=O)(=O)c1ccc([N+](=O)[O-])cc1`, for which the inhibition at 25 µM in data set [1] turned out to be 21.3%.
Same read-out and setting: next, `COc1cccc(S(=O)(=O)Nc2ccccc2NC(=O)c2cc(Cl)c(Cl)c(Cl)c2)c1`: 1.5%; `O=S(=O)(Nc1ccccc1CNc1cc(Cl)c(Cl)c(Cl)c1)c1cccc(Cl)c1`: 33.4%.
Consider `O=S(=O)(Nc1ccccc1CNc1cc(Cl)c(Cl)c(Cl)c1)c1cccc(OC(F)(F)F)c1`, for which, in [1], the inhibition at 25 µM was 33.5%.
Same read-out and setting: the result for `O=C(Nc1ccc(Cl)cc1Cl)Nc1ccccc1NS(=O)(=O)c1cccc([N+](=O)[O-])c1` reads 29.8%; that for `COc1ccc(NC(=O)Nc2ccccc2NS(=O)(=O)c2cccc([N+](=O)[O-])c2)cc1`, 25.4%.
Still for that read-out and setting: the result for `O=C(O[C@@H]1Cc2c(O)cc(O)cc2O[C@@H]1c1cc(O)c(O)c(O)c1)c1cc(O)c(O)c(O)c1` [EPIGALOCATECHIN GALLATE] reads 25.3%; that for `O=C(Nc1ccccc1NS(=O)(=O)c1cccc([N+](=O)[O-])c1)c1ccc(Cl)c(Cl)c1`, 30.9%.
The same measure, in the same setting: the result for `COc1ccc(C(F)(F)F)cc1NC(=O)Nc1ccccc1NS(=O)(=O)c1ccc([N+](=O)[O-])cc1` reads 21.5%; that for `O=C(Nc1cccc(C(F)(F)F)c1)Nc1ccccc1NS(=O)(=O)c1cccc([N+](=O)[O-])c1`, 22.8%.
Regarding `O=C(Nc1ccc(Cl)c(Cl)c1)Nc1ccccc1NS(=O)(=O)c1cccc([N+](=O)[O-])c1`, the inhibition at 25 µM in data set [1] came to 21.6%.
For `Cc1ccc(S(=O)(=O)Nc2ccccc2CNc2cc(Cl)c(Cl)c(Cl)c2)cc1`, the inhibition at 25 µM in data set [1] is 3.4%.
As to `O=C(Nc1cc(C(F)(F)F)ccc1Cl)Nc1ccccc1NS(=O)(=O)c1ccc([N+](=O)[O-])cc1`, in [1], the inhibition at 25 µM worked out at 39.4%.
Still for that read-out and setting: the result for `COc1ccc(C(=O)Nc2ccccc2NS(=O)(=O)c2cccc([N+](=O)[O-])c2)cc1` reads 33.6%; that for `O=[N+]([O-])c1cccc(S(=O)(=O)Nc2ccccc2CNc2ccc(F)c(Cl)c2)c1`, 24.1%.
For `O=[N+]([O-])c1ccc(S(=O)(=O)Nc2ccccc2CNc2cc(Cl)c(Cl)c(Cl)c2)cc1`, the inhibition at 25 µM in [1] is 48.7%. For the same molecule, the inhibition result in the data set on LX-2 [6], with LX-2 [2], with LX-2 [3], with LX-2 [4] and with LX-2 [5] was “Active” throughout.
For the molecule `COc1ccc(NC(=O)Nc2ccccc2NS(=O)(=O)c2ccc([N+](=O)[O-])cc2)cc1`, the inhibition at 25 µM in data set [1] was found to be 14.5%.
For `O=C(Nc1ccccc1NS(=O)(=O)c1ccc([N+](=O)[O-])cc1)c1ccc(Cl)c(Cl)c1`, the inhibition at 25 µM in [1] came to 49.3%. In addition, the inhibition result in the data set on LX-2 [6], in the data set with LX-2 [2], with LX-2 [3], with LX-2 [4] and with LX-2 [5] was “Active” in each case.
Regarding `O=S(=O)(Nc1ccccc1CNc1cc(Cl)c(Cl)c(Cl)c1)c1ccc(OC(F)(F)F)cc1`, the inhibition at 25 µM in data set [1] is 42.4%.
Consider `O=C(Nc1ccccc1NS(=O)(=O)c1cccc([N+](=O)[O-])c1)c1cc(Cl)ccc1Cl`, for which the inhibition at 25 µM in [1] came out at 24.6%.
With `Cc1ccc(NCc2ccccc2NS(=O)(=O)c2cccc([N+](=O)[O-])c2)cc1`, the inhibition at 25 µM in [1] was determined as 14.7%.
